Patent US9067920B2, “Compounds useful for inhibiting Chk1” (Eli Lilly and Company, priority 2010, dated 2015)
Where a name gives a salt, the structure may show the parent alone.

Experiments:
[1] = biological target: T1, Chk1 (Homo sapiens, UniProt O14757); assay: Chk1 biochemical assay (CHK1/substrate peptide filter binding); details: 60 μM ATP, 0.75 nM Chk1 enzyme
T1 sequence (O14757 1-476): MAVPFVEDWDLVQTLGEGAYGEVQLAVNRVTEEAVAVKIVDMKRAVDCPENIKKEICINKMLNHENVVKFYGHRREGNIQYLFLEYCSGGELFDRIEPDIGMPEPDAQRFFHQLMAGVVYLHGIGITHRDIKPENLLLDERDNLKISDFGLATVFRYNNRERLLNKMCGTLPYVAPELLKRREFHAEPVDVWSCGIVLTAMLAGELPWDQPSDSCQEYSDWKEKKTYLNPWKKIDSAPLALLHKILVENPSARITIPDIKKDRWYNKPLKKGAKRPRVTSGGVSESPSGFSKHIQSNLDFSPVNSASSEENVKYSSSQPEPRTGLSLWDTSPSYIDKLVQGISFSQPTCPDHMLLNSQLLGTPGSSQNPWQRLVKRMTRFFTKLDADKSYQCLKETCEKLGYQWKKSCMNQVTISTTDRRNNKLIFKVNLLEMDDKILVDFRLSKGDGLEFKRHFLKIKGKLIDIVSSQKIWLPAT
Description: The effect of compounds on Chk1 biochemical activity can be determined using a CHK1/substrate peptide filter binding assay. In this assay, a synthetic peptide based on the amino acid sequence residues 206-225 of Cdc25, is used as a phospho-acceptor substrate for recombinant Chk1 protein kinase. Using γ-^33P-ATP as the phospho-donor substrate, Chk1 transfers the radioactive γ-^33phosphate group to the synthetic peptide. The reaction is measured by capturing the peptide substrate on a cation exchange paper filter plate and scintillation counting of emitted beta particles.
The kinase reactions (40 μL reaction volumes) are performed in 96-well V-bottom polystyrene plates. Reactions are initiated with the addition of Chk1 enzyme. […]
Following Chk1 enzyme addition, the reactions are incubated at room temperature for 90 min, and then terminated with the addition of 140 μL of phosphoric acid. […] After sitting for 4 h at room temperature, the radioactivity in the plate is measured using a MicroBeta Trilux microplate scintillation counter (Perkin Elmer).
For IC50 determination, the percent inhibition for each concentration is calculated using the scintillation count ratio from controls run on each plate. […] Absolute IC50 values are calculated from the resulting curve. […]

[2] = test system: HT-29 colon carcinoma cells; assay: ECtfs (two-fold sensitization) assay, gemcitabine potentiation, MTS; type: cell-based
Description: An inhibitor of Chk1 can potentiate the anti-proliferative activity of gemcitabine (or other cytotoxics) through abrogation of the intra-S phase checkpoint, resulting in sustained and increased DNA damage. The capacity for continued tumor cell proliferation after DNA damage can be analyzed by determining the ability of cells to replicate their DNA. […] In this assay, cells are treated with a dilution series of gemcitabine, and then 22 h later with the compound of Example 3, After an additional 44 h, the relative cell number is assessed by a MTS (3-(4,5-dimethylthiazol-2-yl)-5-(3-carboxymethoxyphenyl)-2-(4-sulfophenyl)-2H-tetrazolium) dye reduction assay. The ECtfs parameter is a measure of the concentration of a Chk1 inhibitor necessary to reduce by half the (1190 concentration of gemcitabine, measured in this assay in the absence of Chk1 inhibition. HT-29 cells (obtained from ATCC), are grown in RPMI 1640 plus 10% (v/v) heat inactivated FBS, The cells are plated at 2.5×10^3 per well, in a volume of 100 μL on 96-well tissue culture plates and incubated for 24 h. Gemcitabine dilutions are prepared at 6× concentrations in McCoy's 5A medium (modified) (1×) and added to wells at 20 μper well. Gemcitabine dilutions were set up with the highest final concentration of gemcitabine being 1.0 μM and dilutions made by three-fold steps to 0.5 nM.
Chk1 Inhibitor is prepared by dilutions in DMSO to 4000× final concentration, and then diluted 666-fold into McCoy's medium to generate 6× stocks. Chk1 inhibitor dilutions proceed by 2.5-fold steps starting at 25 nM down to 0.3 nM. Twenty-two hours 1.0 after gemcitabine addition, Chk1, inhibitor is added in a volume of 24 μL to wells containing 120 μL of medium plus gemcitabine. Each gemcitabine dilution receives a single Chk1 inhibitor dilution. Control wells received DMSO, gemcitabine, or Chk1 inhibitor alone. Forty-four hours after addition of Chk1 inhibitor, 30 μL of CellTiter 96® AQueous assay reagent, is added to each well and held at room temperature for 1 hour and 45 minutes. Absorbance is read on a SpectraMax 250 (Molecular Devices) spectrophotometer at 490 nm. Data from the SpectraMax spectrophotometer are analyzed with GraphPad Prism 4.0. First, an averaged no cell control absorbance is subtracted from all other values in the matrix of data from each plate. Next, duplicate data points are averaged. Data are normalized for each Chk1 inhibitor concentration, with 0% cell number set as corrected A490=0, and 100% cell number set as the 0 nM gemcitabine mean value. […] Gemcitabine concentrations are converted to log concentrations, and normalized cell number values are converted to percent inhibition (percent inhibition=1.00-normalized value). Transformed data are plotted, and a non-linear regression is run to estimate an IC50 value for gemcitabine at each Chk1 inhibitor concentration. The nonlinear regression is calculated allowing the slope to vary, and without constraints for the top or bottom of the dose-response curves. The ECtfs value is calculated as follows: GI50 values for gemcitabine for each Chk1 inhibitor concentration are determined, plotted, and the concentration of Chk1 inhibitor necessary to decrease the gemcitabine alone GI50 by two-fold is determined by interpolation.
Compounds within the scope of the invention are tested in this assay run substantially as above. For example, the compound of Example 3 is tested and found to have an ECtfs value of 1.0 nM (SE=0.1, n=3). […]

Compound	IC50 [1]	decrease of the EC50 of gemcitabine ([2]; HT-29 cells, 25 nM of the compound)	ECtfs value ([2]; HT-29 cells, concentration that decreases the gemcitabine GI50 two-fold)	effect on the proliferation of HT-29 cells ([2]; compound alone, 25 nM)
COc1nc(C)ccc1-c1cc(Nc2cncc(O[C@@H]3CCCNC3)n2)[nH]n1 [Example 1, (R)-[5-(2-Methoxy-6-methyl-pyridin-3-yl)-2H-pyrazol-3-yl]-[6-(piperidin-3-yloxy)-pyrazin-2-yl]-amine]	< 1 nM			
COc1nc(C)ccc1-c1cc(Nc2cncc(O[C@@H]3CCCNC3)n2)[nH]n1 [Example 3, (R)-[5-(2-Methoxy-6-methyl-pyridin-3-yl)-2H-pyrazol-3-yl]-[6-(piperidin-3-yloxy)-pyrazin-2-yl]-amine acetic acid salt]		7 fold	1.0 nM	little effect
